What was measured:
[1] = system: BRAFV600E mouse melanoma transplants; conditions: in vivo; cited from earlier work
M6PR = test: Cell surface M6PR expression by flow cytometry in WM983B melanoma cells; format: cell-based, human
Protocol: Human studies were approved by The Wistar Institute IRB. Peripheral blood was collected from healthy volunteers after obtaining informed consent. Animal experiments were approved by The Wistar Institute Animal Care and Use Committee. The mice were kept under pathogen free conditions. Experiments were carried out using female NSG mice or female and male nonobese diabetic/severe combined immunodeficient (NOD/SCID) mice, obtained from the mouse facility of the Wistar Institute and Charles River Laboratories, respectively. WM35 human melanoma and HLA-matched human tumor infiltrating lymphocytes (TIL) were generated at H. Lee Moffitt Cancer Center and Research Institute, Tampa, Fla., USA). […] Louis, Mo.) and 1% Pen/Strep (Corning; Cat. no. 30-002-Cl) at 37° C., 5% CO2. PLX4720-resistant cells were kept in cell culture media supplemented with 1 μM PLX4720 to keep these cells resistant against the drug. 350 μg/mL Hygromycin B (Invitrogen; […] Tumor cell lines were tested for mycoplasma contamination by using Universal Mycoplasma detection kit (ATCC) regularly. […] Cat. no. […] Cat. no. S2673). Hypoxia (0.5% 02) was maintained using hypoxic chamber (BioSpherix). […] Cells were incubated with Aqua dead cell staining kit (Thermo Fischer Scientific; Cat. no. […] Cat. no. 565105; clone no. MEM-238) or its isotype (BD Biosciences; Cat. no. 557732; clone no. MOPC-21) at 4° C. for 20 minutes. Cells were fixed using 1% paraformaldehyde for 20 minutes at 4° C. before running them on LSR14. Data was analyzed by FlowJo software (Tree Star).

For CCCS(=O)(=O)Nc1ccc(F)c(C(=O)c2c[nH]c3ncc(Cl)cc23)c1F [PLX4720], the “CD8+T/FoxP3+CD4+ T cell ratio and NK cells” value [1] is given as “robust increase in the CD8+T/FoxP3+CD4+ T cell ratio and in NK cells”, the “tumor CCL2 expression” value [1] is given as “decreased tumor CCL2 expression” and the tumor immunogenicity [1] is given as “did not directly increase tumor immunogenicity”. For the same molecule, the “M6PR on the cell surface” value (M6PR; 1 μM, 2.5, 5 or 10 μM PLX4720, within 6 hours) was “substantial dose-dependent up-regulation of M6PR on the cell surface”, the “expression of M6PR during hypoxia” value (M6PR; 0.5% O2, within 3 hours after starting treatment, 10 μM) was “significant (p<0.0001) increase in the expression of M6PR” and the “M6PR up-regulation, hypoxia compared with normoxia” value (M6PR; 0.5% O2 vs normoxia) was “more pronounced under hypoxic conditions than in normoxia”. The “M6PR expression twenty-four hours after starting treatment” value (M6PR; 24 hours) was “no up-regulation of M6PR expression”, the “M6PR expression on the cell surface” value (M6PR; O/N, different concentrations of PLX4720) was “substantial up-regulation of M6PR” and the “time to maximum M6PR up-regulation” value (M6PR; hypoxic conditions) was at most 12 h.

Source: patent US20220125839A1, “COMBINATION OF T-CELL THERAPY AND TARGETED THERAPY FOR TREATING THERAPY-RESISTANT MELANOMA WITH MUTATIONS IN THE BRAF GENE” (H. LEE MOFFITT CANCER CENTER AND RESEARCH INSTITUTE, INC., priority 2019, published 2022)
